# Earlier results in US20100062042A1, “Methods, Systems and Devices for Administration of Chlorine Dioxide” (priority 2008, published 2010).
# Key:
# [1] = system: Pseudomonas aeruginosa (P. aeruginosa); conditions: see U.S. Application No. 61/150,685
# [2] = system: methicillin-resistant Staphylococcus aureus (MRSA); conditions: see U.S. Application No. 61/150,685
# [3] = particularly in chilled water
structure (smiles),measurement,setting,value
"[O][Cl+][O-] [chlorine dioxide, Chlorine dioxide]",Effectiveness against P. aeruginosa,[1],effective
same,Effectiveness against MRSA,[2],effective
same,Solubility in water,[3],high solubility in water
